{"source": "patent US7956041B2", "about": "“Prophylactic and therapeutic agent of diabetes mellitus” (Ajinomoto Co., Inc., priority 2002, dated 2011)", "key": {"[1]": {"tested_on": "Male Wistar rats", "assay": "Test Example 1: evaluation of urine sugar excretion action in rats", "assay_type": "in vivo, rat", "conditions": "100 mg/kg p.o. in olive oil, urine collected 24 hours, per individual per day", "protocol": "Male Wistar rats aged 5 weeks (purchased from Charles River Japan, Inc.) were acclimatized in metabolic cages for one week, for use at this experiment. The test compounds suspended in olive oil were prepared into a 20 mg/ml solution to a dose of 5 ml per 1 kg rat body weight.\nAfter the rats were starved for 4 hours, the test compounds were orally given at 100 mg/kg to the rats at 11 am. Immediately after dosing until 24 hours later, urine was collected. The volume of urine was measured. Then, urine sugar concentration was assayed by glucose oxidase method, to calculate the glucose excretion into urine per individual per day."}, "[2]": {"tested_on": "Type 2 diabetes model db/db mice", "assay": "Example IV: nateglinide load test after 25 days of dosing in db/db mice", "assay_type": "in vivo, mouse", "conditions": "db/db mice after long-term inhibitor B 80 mg/kg twice daily; compared with vehicle-dosed and nateglinide-dosed groups", "protocol": "Type 2 diabetes model db/db mice (age 6 weeks) were fed and kept with a feed twice daily over one hour starting 9 am and one hour starting 3 pm, for one week. Then, the mice were divided into groups with matched blood glucose levels and body weights. Subsequently, the inhibitor B of renal glucose reabsorption at 80 mg/kg or nateglinide at 80 mg/kg was orally given, immediately before feeding twice daily. Only a vehicle was orally given immediately before feeding twice daily to the animals of a control group. […] Blood glucose levels were measured before and after the administration, to examine whether or not the hypoglycemic action of nateglinide could be observed (nateglinide load test)."}, "[3]": {"tested_on": "Male Wistar rats", "assay": "Test Example 1B: excretion action of urine sugar in rat", "assay_type": "in vivo", "conditions": "oral administration, Dose 10 mg/kg, 24 hours", "protocol": "Male Wistar rats aged 5 weeks (purchased from Charles River Japan, Inc.) were acclimatized in metabolic cages for one week, for use at this experiment. The test compounds suspended in olive oil were prepared into solutions to a dose of 5 ml per 1 kg rat body weight. After the rats were starved for 4 hours, the test compounds were orally given at 10, 30 and 100 mg/kg to the rats at 11 am. Immediately after dosing until 24 hours later, urine was collected. The volume of urine was measured. Then, urine glucose concentration was assayed by glucose oxidase method, to calculate the glucose excretion into urine per individual per day. As a positive control, 3-(5-benzo[b]furanyl)-2′-(6-o-methoxycarbonyl-β-D-glucopyranosyloxy)-6′-hydroxy-4′-methylpropiophenone [under a different name of 3-(benzo[b]furan-5-yl)-2′,6′-dihydroxy-4′-methylpropiophenone 2′-o-(6-o-methoxycarbonyl-β-D-glucopyranoside)] was used."}, "[4]": {"tested_on": "glucose-loaded rats (Wistar rats)", "assay": "Example I: blood glucose time course after oral glucose loading in rats", "assay_type": "in vivo, rat", "conditions": "glucose 1 g/kg p.o.", "protocol": "Wistar rats (age of 7 weeks; male) were divided into groups with matched body weights. After 17-hour starvation, glucose was orally given at 1 g/kg to the animals. Immediately after the administration, the inhibitor A of renal glucose reabsorption or the inhibitor B of renal glucose reabsorption (A at 30 mg/kg or 60 mg/kg; B at 30 mg/kg or 80 mg/kg) or glibenclamide (1 mg/kg or 2 mg/kg) or nateglinide (50 mg/kg or 80 mg/kg) was orally given. Additionally, a group on the combined use of both of an inhibitor of renal glucose reabsorption and a hypoglycemic agent was also prepared. A vehicle was orally given to a control group after glucose administration.\nBlood glucose was measured in a time course."}, "[5]": {"tested_on": "Renal brush border membrane", "assay": "Test Example 1A: inhibitory action of 14C-D-glucose uptake", "assay_type": "biochemical", "conditions": "rat renal brush border membrane, 37° C., 30 minutes preincubation", "protocol": "Test compounds were dissolved in 100 mM mannitol-10 mM HEPES/Tris, pH 7.4 to prepare solutions at various concentrations.\nRenal brush border membrane was prepared from a rat kidney, to which a solution of a test compound was added for incubation at 37° C. for 30 minutes. Then, ^14C-D-glucose was added for incubation for one minute. A solution containing 1 mM phlorizin was used to terminate the glucose uptake reaction. The radioactivity ^14C of ^14C-D-glucose incorporated in the renal brush border membrane was counted with a liquid scintillation counter. The glucose uptake independent on sodium was reduced from the glucose uptake in a control group or a test group, to calculate the inhibition intensity."}, "[6]": {"tested_on": "Type 2 diabetes model Zucker diabetic fatty rats", "assay": "Example V: insulin content in pancreas of Zucker diabetic fatty rats (ELISA)", "assay_type": "in vivo, rat", "conditions": "twice daily p.o., day 39, starved 18 h, inhibitor A 30 mg/kg and/or metformin 200 mg/kg, FIG. 5", "protocol": "Type 2 diabetes model Zucker diabetic fatty rats (age 15 weeks) were divided into groups with matched blood glucose levels and body weights. Subsequently, the inhibitor A of renal glucose reabsorption at 30 mg/kg or metformin at 200 mg/kg was orally given twice daily. Further, a group to be on a combined use of the inhibitor A of renal glucose reabsorption (30 mg/kg) and metformin (200 mg/kg) was prepared. The agents were orally given twice daily at the same time period as in the case of the groups administered with a single one of these agents. Only a vehicle was orally given twice daily to the animals in a control group. On day 39 from the start of administration, the animals were starved for 18 hours. Then, pancreas was resected from the animals, for the assay of insulin in pancreas homogenates by ELISA, to compare the groups in terms of insulin content in pancreas.\nZucker diabetic fatty rat is a type 2 diabetic model animal, where the sustainment of hyperglycemic conditions induces a high concentration of glycated hemoglobin so that the aging of the model animal involves the decrease of the insulin content in pancreas."}, "[7]": {"tested_on": "Type 2 diabetic model GK rats", "assay": "Example III: blood glucose on day 25 of once daily dosing in GK rats", "assay_type": "in vivo, rat", "conditions": "once daily p.o., glibenclamide 3 mg/kg and/or inhibitor A 30 mg/kg, FIG. 4", "protocol": "Type 2 diabetic model GK rats (age of 7 weeks; male) were divided into groups with matched blood glucose levels and body weights, for once daily oral administration of the inhibitor A of renal glucose reabsorption (30 mg/kg) or glibenclamide at 3 or 6 mg/kg. Further, a group given with a combination of the inhibitor A of renal glucose reabsorption at 30 mg/kg and glibenclamide at 3 mg/kg was prepared. These agents were orally given once daily at the same time period as in the group administered with a single one agent. Only a vehicle was given orally to a control group. On day 25 after the start of administration, blood glucose was assayed sequentially, to compare the groups in terms of the resulting blood glucose levels."}, "[8]": {"tested_on": "glucose-loaded mice (KK mice)", "assay": "Example II: blood glucose time course after oral glucose loading in KK mice", "assay_type": "in vivo, mouse", "conditions": "glucose 1 g/kg p.o., FIG. 3", "protocol": "KK mice (age of 25 weeks; male) fed with a commercially available high-calories feed for breeding (CMF; Oriental Yeast) were divided into groups with matched body weights. After starvation for 17 hours, glucose was orally given at 1 g/kg. Immediately thereafter, the inhibitor A of renal glucose reabsorption (30 mg/kg or 45 mg/kg) or metformin (200 mg/kg or 300 mg/kg) was orally given. Additionally, a group given with the inhibitor A of renal glucose reabsorption (30 mg/kg) and metformin (200 mg/kg) was prepared. A vehicle was orally given to a control group after glucose dosing.\nBlood glucose level was assayed in a time course."}, "[9]": {"conditions": "metformin 200 mg/kg, inhibitor A 30 mg/kg p.o., vs control"}}}
{"smiles": "CCc1ccc(Cc2c(OC3OC(COC(=O)OC)C(O)C(O)C3O)nn(C3CCCC3)c2C(F)(F)F)cc1", "note": "[Production Example 4, 1′-cyclopentyl-4′-[(4-ethylphenyl)methyl]-5′-trifluoromethyl-1H-pyrazole-3′-o-(6-carbomethoxy)-β-D-glucopyranoside]", "values": [{"measurement": "Urine sugar excretion", "setting": "[1]", "value": 452, "unit": "mg"}]}
{"smiles": "CCc1ccc(Cc2c(OC3OC(COC(=O)OC)C(O)C(O)C3O)nn(C3CCC3)c2C(F)(F)F)cc1", "note": "[Production Example 2, 1′-cyclobutyl-4′-[(4-ethylphenyl)methyl]-5′-trifluoromethyl-1H-pyrazole-3′-o-(6-carbomethoxy)-β-D-glucopyranoside]", "values": [{"measurement": "Urine sugar excretion", "setting": "[1]", "value": 656, "unit": "mg"}]}
{"smiles": "COC(=O)OC[C@H]1O[C@@H](Oc2cc(C)cc(O)c2C(=O)CCc2ccc3occc3c2)[C@H](O)[C@@H](O)[C@@H]1O", "note": "[3-(5-benzo[b]furanyl)-2′-(6-o-methoxycarbonyl-β-D-glucopyranosyloxy)-6′-hydroxy-4′-methylpropiophenone]", "values": [{"measurement": "Hyperglycemia 30 minutes after loading with glucose and nateglinide (in words)", "setting": "[2]", "value": "nateglinide greatly suppressed hyperglycemia due to glucose loading"}, {"measurement": "Excreted urine sugar", "setting": "[3]", "value": 2, "unit": "mg"}, {"measurement": "Blood glucose 180 minutes after glucose loading and thereafter", "setting": "[4]; inhibitor B 30 mg/kg alone or with nateglinide 50 mg/kg p.o., vs vehicle, FIG. 2", "value": "lower than that in the vehicle-dosed group"}, {"measurement": "Pattern of glycemic suppression at increased dose", "setting": "[4]; nateglinide 80 mg/kg, inhibitor B 80 mg/kg, FIG. 2", "value": "This pattern of glycemic suppression was also observed in the group with the increase of the dose"}]}
{"smiles": "CCc1ccc(Cc2c(O[C@@H]3O[C@H](C(=O)O)[C@@H](O)[C@H](O)[C@H]3O)n[nH]c2C(F)(F)F)cc1", "note": "[Production Example 2-A, 4-((4-ethylphenyl)methyl)-5-(trifluoromethyl)-1H-pyrazol-3-yl-β-D-glucopyranoside uronic acid]", "values": [{"measurement": "Inhibition intensity", "setting": "[5]; concentration of test compound 100 μM", "value": "30% (100 μM)"}]}
{"smiles": "CSc1ccc(Cc2c(O[C@@H]3O[C@H](CO)[C@@H](O)[C@H](O)[C@H]3O)n[nH]c2C(F)(F)F)cc1", "note": "[Production Example 1-A, 4-((4-methylthiophenyl)methyl)-5-(trifluoromethyl)-1H-pyrazole-3-o-β-D-glucopyranoside]", "values": [{"measurement": "Inhibition intensity", "setting": "[5]; concentration of test compound 10 μM", "value": "84% (10 μM)"}]}
{"smiles": "CCc1ccc(Cc2c(O[C@@H]3O[C@H](CO)[C@@H](O)[C@H](O)[C@H]3O)nn(C3CCC3)c2C(F)(F)F)cc1", "note": "[1′-cyclobutyl-4′-[(4-ethylphenyl)methyl]-5′-trifluoromethyl-1H-pyrazole-3′-o-β-D-glucopyranoside]", "values": [{"measurement": "Insulin content in pancreas", "setting": "[6]", "value": "no difference was observed in insulin content in spleen"}, {"measurement": "Blood glucose level on day 25", "setting": "[7]", "value": "significantly lowered, compared with the group given the vehicle"}, {"measurement": "Blood glucose immediately after glucose loading (30 minutes)", "setting": "[4]; glibenclamide 1 mg/kg and/or inhibitor A 30 mg/kg p.o., vs vehicle, FIG. 1", "value": "suppressed hyperglycemia observed in the vehicle group immediately after glucose loading"}, {"measurement": "Pattern of glycemic suppression at increased dose", "setting": "[4]; glibenclamide 2 mg/kg, inhibitor A 60 mg/kg, FIG. 1", "value": "The pattern of glycemic suppression did not change even when the dose was elevated"}, {"measurement": "Blood glucose 30 minutes after glucose loading", "setting": "[8]; [9]", "value": "could suppress hyperglycemia 30 minutes and 60 minutes after glucose loading"}, {"measurement": "Blood glucose 60 minutes after glucose loading", "setting": "[8]; [9]", "value": "could suppress hyperglycemia 30 minutes and 60 minutes after glucose loading"}, {"measurement": "Blood glucose 2 hours after glucose loading and thereafter", "setting": "[8]; [9]", "value": "could not suppress the blood glucose level 2 hours later and thereafter"}, {"measurement": "Pattern of glycemic suppression at elevated dose", "setting": "[8]; metformin 300 mg/kg, inhibitor A 45 mg/kg", "value": "the pattern of glycemic suppression did not change even when the dose was elevated"}]}
